# Tests used:
# [1] = tested on: artificial bulbus pili site (human dermal papilla cells + outer root sheath cells); assay: Growth-stimulative activity test on artificial human bulbus pili cell (Alamar Blue relative respiration level); assay type: cell-based; conditions: for Judgment (cell growth-stimulative effect by relative respiration level): final concentration 10^−12 M or 10^−14 M (not said which), 2 days incubation, negative control 0.1% ethanol = 100%; for cell growth-stimulative effect on artificial bulbus pili site, in words: final concentration 10^−12 M or 10^−14 M, summary of Table 2
# Experimental: Growth-Stimulative Activity Test on Artificial Human Bulbus Pili Cell
# (1) Preparation of First Stage Incubated Outer Root Sheath Cell
# A bulbus pili site of a hair follicle isolated from a human scalp obtained by a plastic surgery was excised and then enzymatically treated in Keratinocyte-SFM medium (GibcoBRL:11965-011) supplemented with 1000 unit/ml dispase+0.2% collagenase at 37° C. for 30 minutes. After unnecessary hair follicle mesenchymal tissue such as connective tissue root sheath was removed therefrom using the tip of a syringe needle (27G), the residue was placed in the incubating space of an incubator coated with collagen and explant culture was performed in Keratinocyte-SFM medium supplemented with an antibacterial agent. After incubation for about 1 week, the medium was exchanged upon ensuring the growth of the cells. Cells grown to be subconfluent were treated with PBS(−)+0.05% trypsin at 37° C. for 3 minutes and the reaction was stopped with an equivalent amount or more of PBS(−)+0.1% trypsin inhibitor (Sigma). The cells were collected by centrifugal separation (1200 rpm×5 min) and suspended again in PBS(−). The cells were collected by centrifugal separation (1200 rpm×5 min), thereby washing the cells. Washed cells were stored while being frozen in a liquid nitrogen using Cellbanker II (DIA-IATRON: ZCB-201(100)), thereby obtaining the first stage incubated outer root sheath cells.
# (2) Preparation of First Stage Incubated Dermal Papilla Cell
# From a bulbus pili site obtained by excising a hair follicle isolated from a human scalp obtained by a plastic surgery, using the tip of a syringe needle (27G), a dermal papilla site was isolated under a stereoscopic microscope and placed in the incubating space of an incubator coated with collagen. Then, explant culture was performed in 10% FBS-added DMEM medium (GibcoBRL: 11965-092) supplemented with an antibacterial agent. After incubation for about 2 week, the medium was exchanged upon ensuring the growth of the cells. Cells grown to be subconfluent were treated with PBS(−)+0.05% trypsin at 37° C. for 3 minutes and the reaction was stopped with an equivalent amount or more of PBS(−)+0.1% trypsin inhibitor (Sigma). The cells were collected by centrifugal separation (1200 rpm×5 min) and suspended again in PBS(−). The cells were collected by centrifugal separation (1200 rpm×5 min), thereby washing the cells. Washed cells were stored while being frozen in a liquid nitrogen using Cellbanker II (DIA-IATRON: ZCB-201(100)), thereby obtaining the first stage incubated dermal papilla cells.
# (3) Manufacture of the Artificial Bulbus Pili Site
# (§1) The first stage incubated dermal papilla cell obtained above was subcultured three times (37° C., 5% CO2) in a 10% FBS-supplemented DMEM medium (GibcoBRL: 11965-092) in a 75 cm^2 incubation flask coated with Type I collagen, and then stored while being frozen in a liquid nitrogen using Cellbanker II (DIA-IATRON: ZCB-201(100)) (DPc).
# as §1, with “Also, the” for “The”, “outer root sheath” for “dermal papilla”, “Keratinocyte-SFM” for “10% FBS-supplemented DMEM”, “11965-011)” for “11965-092)”, “(ORSc).” for “(DPc).”
# The DPc and ORSc stored as frozen were thawed, washed with an ice-cooled Keratinocyte-SFM medium, dispersed in Keratinocyte-SFM(+) medium (which is Keratinocyte-SFM medium supplemented with 5 ng/mL epidermal growth factor and 5 μl/mL bovine pituitary glanusi extract), and subjected to an accurate cell density measurement using a hemocytometer. Then, each cell density was adjusted at 5×10^4 cells/ml, and the cell dispersions in equal volumes were combined under cooling with ice. 80 μl aliquots of the combined cell suspending Keratinocyte-SFM(+) medium were inoculated into individual wells of Sumilon celltight spheroid 96U plate (Sumitomo Bakelit co.,), and incubated for 2 days (37° C., 5% CO2). […]
# [2] = tested on: immortalized human outer root sheath cell; assay: Growth-stimulative activity test on immortalized human outer root sheath cell ([3H]-thymidine uptake); assay type: cell-based; conditions: negative control (KBM+dH2O) = 100%, 2 days incubation
# Experimental: Growth-Stimulative Activity Test on Immortalized Human Outer Root Sheath Cell (I) Immortalized Human Outer Root Sheath Cell Keratinocyte-SFM medium (Gibco BRL), to which a supplement attached with the medium was added, was used for culture on a dish which surface was coated with collagen. The cell was cultured until it became semiconfluent and then peeled off with 0.05% trypsin/PBS(−) and subcultured. 30-40th stage culture cells were used for study on growth. (2) Sample Preparation Each tested compound described below is dissolved with distilled water at the concentration of 10 mM and sterilized through Millipore filter. This aqueous solution was diluted with KBM at a predetermined concentration and added to the cell as a sample. The immortalized human outer root sheath cell was inoculated into a microplate (Iwaki, 24 wells) (20000 cells/well) with a growth medium KGM (Sanko Junyaku Co., Ltd., CC-3111) and incubated at 37° C. for 1 day. After each well was washed once with basal medium KBM (Sanko Junyaku Co., Ltd., CC-3101), the medium was exchanged with KBM containing each sample, and then incubated further for 2 days. [^3H]-Thymidine (Amersham Pharmacia Biotech K.K., TRK758, the final concentration: 20 μCi/ml) was added thereto and incubated at 37° C. for 3 hours. The cell was peeled off with 0.25% trypsin/PBS(−) and collected on a glass filter (Watmann, GLC). After [^3H]-thymidine that is not taken into the cell was removed by washing with distilled water, the filter was air-dried and then the radioactivity was measured by a liquid scintillation counter. […], using the uptake quantity of radioactivity in the sample-added group when that in the negative control medium (KBM+dH2O) was regarded as 100%, the immortalized human outer root sheath cell growth activity was evaluated.
structure (smiles),measurement,setting,value
COc1ccc(C(C#N)(CCCN(C)C(C)C)C(C)C)cc1OC (stereo not drawn) [Example 6],Judgment (cell growth-stimulative effect by relative respiration level),[1],"+ (Effect is recognized (105% or more, and less then 110%))"
COc1ccc(C(C#N)(CCCN(C)CC(C)C)C(C)C)cc1OC (stereo not drawn) [Example 8],Judgment (cell growth-stimulative effect by relative respiration level),[1],"++ (Strong effect is recognized (110% or more, and less than 115%))"
same,"cell growth-stimulative effect on artificial bulbus pili site, in words",[1],strong effects
"COc1ccc(C(C#N)(CCCN(C)CCC(C)C)C(C)C)cc1OC.Cl (stereo not drawn) [Example 21, 2-(3′,4′-dimethoxyphenyl)-2-isopropyl-5-[N-methyl-N-(3-methylbutyl)amino]-pentanenitrile hydrochloride]",[^3H]-thymidine uptake quantity,[2]; concentration 10^−9 M,151%
same,[^3H]-thymidine uptake quantity,[2]; concentration 10^−10 M,143%
same,[^3H]-thymidine uptake quantity,[2]; concentration 10^−11 M,160%
same,[^3H]-thymidine uptake quantity,[2]; concentration 10^−12 M,114%
same,[^3H]-thymidine uptake quantity,[2]; concentration 10^−13 M,118%
CCCN(CCC)CCCC(C#N)(c1ccc(OC)c(OC)c1)C(C)C (stereo not drawn) [Example 12],Judgment (cell growth-stimulative effect by relative respiration level),[1],"+ (Effect is recognized (105% or more, and less then 110%))"
"COc1ccc(C(C#N)(CCCn2cccn2)C(C)C)cc1OC (stereo not drawn) [Example 27, 2-(3′,4′-dimethoxyphenyl)-2-isopropyl-5-pyrazole-1″-yl-pentanenitrile]",Judgment (cell growth-stimulative effect by relative respiration level),[1],"+ (Effect is recognized (105% or more, and less then 110%))"
CCN(C)CCCC(C#N)(c1ccc(OC)c(OC)c1)C(C)C (stereo not drawn) [Example 4],Judgment (cell growth-stimulative effect by relative respiration level),[1],+++ (Very strong effect is recognized (115% or more))
same,"cell growth-stimulative effect on artificial bulbus pili site, in words",[1],very strong effects
"CCCCCN(C)CCCC(C#N)(c1ccc(OC)c(OC)c1)C(C)C (stereo not drawn) [Example 28, 2-(3′,4′-dimethoxyphenyl)-2-isopropyl-5-[N-methyl-N-(n-pentyl)amino]pentane nitrile]",Judgment (cell growth-stimulative effect by relative respiration level),[1],"++ (Strong effect is recognized (110% or more, and less than 115%))"
same,"cell growth-stimulative effect on artificial bulbus pili site, in words",[1],strong effects
"COc1ccc(C(C#N)(CCCn2ccnc2)C(C)C)cc1OC (stereo not drawn) [Example 26, 2-(3′,4′-dimethoxyphenyl)-5-imidazole-1″-yl-2-isopropylpentanenitrile]",Judgment (cell growth-stimulative effect by relative respiration level),[1],"+ (Effect is recognized (105% or more, and less then 110%))"
"COc1ccc([C@@](C#N)(CCCN(C)CCC(C)C)C(C)C)cc1OC.Cl [Example 23, (R)-2-(3′,4′-dimethoxyphenyl)-2-isopropyl-5-[N-methyl-N-(3-methylbutyl)amino]-pentanenitrile hydrochloride]",[^3H]-thymidine uptake quantity,[2]; concentration 10^−9 M,115%
same,[^3H]-thymidine uptake quantity,[2]; concentration 10^−10 M,106%
same,[^3H]-thymidine uptake quantity,[2]; concentration 10^−11 M,107%
same,[^3H]-thymidine uptake quantity,[2]; concentration 10^−12 M,117%
same,[^3H]-thymidine uptake quantity,[2]; concentration 10^−13 M,114%
same,[^3H]-thymidine uptake quantity,[2]; concentration 10^−14 M,125%
COc1ccc(C(C#N)(CCCN(CC(C)C)CC(C)C)C(C)C)cc1OC (stereo not drawn) [Example 15],Judgment (cell growth-stimulative effect by relative respiration level),[1],"+ (Effect is recognized (105% or more, and less then 110%))"
"COc1ccc(C(C#N)(CCCn2cccc2)C(C)C)cc1OC (stereo not drawn) [Example 25, 2-(3′,4′-dimethoxyphenyl)-2-isopropyl-5-pyrrole-1″-yl-pentanenitrile]",Judgment (cell growth-stimulative effect by relative respiration level),[1],"++ (Strong effect is recognized (110% or more, and less than 115%))"
same,"cell growth-stimulative effect on artificial bulbus pili site, in words",[1],strong effects
"CNCCC[C@](C#N)(c1ccc(OC)c(OC)c1)C(C)C.Cl [Example 22, (R)-2-(3′,4′-dimethoxyphenyl)-2-isopropyl-5-methylaminopentanenitrile hydrochloride]",[^3H]-thymidine uptake quantity,[2]; concentration 10^−9 M,105%
same,[^3H]-thymidine uptake quantity,[2]; concentration 10^−10 M,98%
same,[^3H]-thymidine uptake quantity,[2]; concentration 10^−11 M,111%
same,[^3H]-thymidine uptake quantity,[2]; concentration 10^−12 M,135%
same,[^3H]-thymidine uptake quantity,[2]; concentration 10^−13 M,153%
same,[^3H]-thymidine uptake quantity,[2]; concentration 10^−14 M,160%
CCCN(C)CCCC(C#N)(c1ccc(OC)c(OC)c1)C(C)C (stereo not drawn) [Example 5],Judgment (cell growth-stimulative effect by relative respiration level),[1],"+ (Effect is recognized (105% or more, and less then 110%))"
CCCCN(C)CCCC(C#N)(c1ccc(OC)c(OC)c1)C(C)C (stereo not drawn) [Example 7],Judgment (cell growth-stimulative effect by relative respiration level),[1],"+ (Effect is recognized (105% or more, and less then 110%))"
"COc1ccc(C(C#N)(CCCN2CCOCC2)C(C)C)cc1OC (stereo not drawn) [Example 24, 2-(3′,4′-dimethoxyphenyl)-2-isopropyl-5-morpholine-4″-yl-pentanenitrile]",Judgment (cell growth-stimulative effect by relative respiration level),[1],"± (Weak effect is recognized (102% or more, and less then 105%))"
